Each structure is given as a SMILES string.

In general, melting point refers to the temperature, or range, at which the solid turns liquid. As usually defined, the Ki is the dissociation constant of the complex between target and ligand, obtained from inhibition or displacement.

Test system in the first data set: not given
Test: not given
Conditions: not given
`Cc1ccc(C2(N(C)C)CCC3(CC2)CC(=O)N(C(=O)OC(C)(C)C)C3)s1` (stereo not shown) registered a melting point of 165 to 167 °C.

The target in the next data set is human μ opiate receptor (Homo sapiens, UniProt P35372). In words: μ opiate receptor binding assay with [3H]-naloxone, membrane preparation of CHO-K1 cells (WGA-SPA beads). To be noted: mean; read-out: Ki (μ) mean [μm].
Sequence of human μ opiate receptor (P35372 whole entry): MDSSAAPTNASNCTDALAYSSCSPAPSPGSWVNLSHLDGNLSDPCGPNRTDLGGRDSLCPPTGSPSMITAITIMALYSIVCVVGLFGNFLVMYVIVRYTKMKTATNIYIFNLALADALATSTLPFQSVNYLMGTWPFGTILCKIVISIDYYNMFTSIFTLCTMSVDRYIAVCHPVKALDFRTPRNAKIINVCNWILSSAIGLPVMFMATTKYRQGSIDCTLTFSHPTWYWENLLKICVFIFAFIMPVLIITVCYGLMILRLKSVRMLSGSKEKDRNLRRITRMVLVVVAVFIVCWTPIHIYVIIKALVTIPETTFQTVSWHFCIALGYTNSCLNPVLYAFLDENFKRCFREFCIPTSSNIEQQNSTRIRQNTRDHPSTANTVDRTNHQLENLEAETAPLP
Consider `CN(C)C1(c2cccs2)CCC2(CCN(Cc3ccncc3)C2=O)CC1` (stereo not shown) [Example 85], for which the Ki was 260 nM.

For the compound `CN(C)C1(C(=O)c2cccs2)CCC2(CCN(Cc3ccccc3)C2)CC1` (single isomer, unassigned) [Example No. 72, [3-Benzyl-8-(dimethylamino)-3-azaspiro[4.5]decan-8-yl]-thiophen-2-ylmethanone], the Ki amounted to 805 nM.

For the compound `CN(C)C1(C(=O)c2ccccc2)CCC2(CCN(Cc3ccccc3)C2)CC1` (single isomer, unassigned) [Example No. 70, [3-Benzyl-8-(dimethylamino)-3-azaspiro[4.5]decan-8-yl]-phenylmethanone], the inhibition constant Ki stood at 465 nM.

Take `CN(C)C1(C(=O)c2cccs2)CCC2(CCN(Cc3ccccc3)C2)CC1` (single isomer, unassigned) [Example No. 71, [3-Benzyl-8-(dimethylamino)-3-azaspiro[4.5]decan-8-yl]-thiophen-2-ylmethanone]: the Ki turned out to be 127 nM.

Regarding `CCCCC1(N(C)C)CCC2(CC1)CC(=O)N(Cc1ccccc1)C2` (stereo not shown) [Example No. 124, 3-Benzyl-8-butyl-8-(dimethylamino)-3-azaspiro[4.5]decan-2-one], the inhibition constant Ki amounted to 2970 nM.

The data set is the same for the next values; noted with them: read-out: MOP Ki.
Turning to `CN(C)[C@]1(c2ccccn2)CC[C@]2(CC1)CC(=O)N(CCCC(N)=O)C2` [SC-1013, Cis-4-(8-Dimethylamino-3-oxo-8-pyridin-2-yl-2-azaspiro[4.5]decan-2-yl)-butyramide], the Ki stood at 2430 nM.

With `COC(=O)c1ccc(N2C[C@]3(CC[C@@](c4ccccc4)(N(C)C)CC3)CC2=O)cc1` [SC-1074, Cis-4-(8-Dimethylamino-3-oxo-8-phenyl-2-azaspiro[4.5]decan-2-yl)-benzoic acid methyl ester], the inhibition constant Ki came out at 420 nM.

Turning to `CN(C)[C@]1(c2cnccn2)CC[C@]2(CC1)CC(=O)N(CCCC(N)=O)C2` [SC-1010, Cis-4-(8-Dimethylamino-3-oxo-8-pyrazin-2-yl-2-azaspiro[4.5]decan-2-yl)-butyramide], the Ki came to 825 nM.

For the compound `CN(C)[C@]1(c2ccccc2)CC[C@]2(CC1)CC(=O)N(CC(C)(C)C(=O)NCCc1cncnc1)C2` [SC-1184, Cis-3-(8-Dimethylamino-3-oxo-8-phenyl-2-azaspiro[4.5]decan-2-yl)-2,2-dimethyl-N-(2-pyrimidin-5-yl-ethyl)-propionamide], the Ki was found to be 320 nM.

Values taken from US10214520B2, “Substituted azaspiro(4.5)decane derivatives” (priority 2014, dated 2019).
